Measurements published in patent US20260258004A1, “CRYSTALLINE FORMS OF (6S)-5-[4'-FLUORO-2-(TRIFLUOROMETHYL)BIPHENYL-4-YL]-6-METHYL-3,6- DIHYDRO-2H-l,3,4-OXADIAZIN-2-ONE” (Bayer Aktiengesellschaft, priority 2022, published 2026).

Experiments:
Type in all cases: physicochemical
[1] = Particle size distribution by laser diffraction (Malvern Panalytical Mastersizer 3000, Fraunhofer)
Method: The particle size distribution was measured by laser diffraction using the Malvern Panalytical Mastersizer 3000.
The samples are again taken from example 1.6 (probe 1) and example 1.5 (probe 2), the same as used in example 4.
The sample to be analyzed is dispersed in 1 drop of Tween 80 the sample is processed according to ISO13320.
Laser diffraction is an often-used method for determination the particle size of dispersed solid materials. A widened laser beam illuminates a cuvette which contains part of the particles. By diffraction on the particles a characteristic pattern can be mapped on the detector. The resulting diffraction image is the additive overlaying of diffraction images of all particles.
Besides the mentioned detector two additional detectors are mounted in order to detect diffraction light in forward direction (FA1,9), in wide angle (LA1,2) and in back direction (BS1,2). The turbidity of the sample is measured by an extinction sensor. This is necessary to ensure a low particle concentration which is necessary to avoid wrong results by multiple diffraction of light at several particles.
The cuvette used was a wet unit where the suspension is pumped in a closed circuit with a dispersing unit that ensures a separation of single particles by shear forces.
The measurement range of the Malvern 3000 covers a particle size from 1 mm (2 mm) down to 20 nm
The calculation of the particle size distribution from the diffraction patterns was done on basis of theory of Fraunhofer.
This assumption is valid for particle sizes of 10 to 50 μm and above. For smaller particles the light scattering of the particle itself due to optical transparency must be considered which is done in the Mie-theory (not used for our probes). Precondition of the application of the Mie-theory is the knowledge of the refractive and absorption index of the dispersed solids.
Q3 is the cumulative volume distribution, e.g. D50=Q(50%) indicates 50% of the volume part of the sample is smaller than particle size of 50 μm.
The particle size is expressed as an equivalent diameter used in the method recommended by the Malvern Analysis Program and as described in ISO13320.

[2] = Hygroscopicity classification applying the Pharmacopeia rules
Text: The shear cell was fully filled with a sample of powder of the compound of formula (I) thereby preventing condensing the powder. Both samples, sample 1 and sample 2, were classified as non-hydroscopic applying the Pharmacopeia rules.

[3] = Thermodynamic stability of the polymorphic forms; conditions: between 0° C. and 80° C.
[4] = Determination of bulk density during shear tests; conditions: during shear test
Method: Because of the normal stress of 1.5 kPa applied on the top of the lid during the shear test the lid lowers into the shear cell and compresses the powder.
During the shear tests this lowering of the lid is measured and recorded. Since the volume of the bottom ring is known and weight of the sample measured before the beginning of the shear test the bulk density of the sample during the shear test is calculated
[formula] • with: • ρb,shear: Bulk density under shear • mges: total mass of shear cell including powder sample (w/o lid) • mcell: net mass of shear cell (w/o powder sample, w/o lid) • hc: height of the bottom ring • hl: lowering of lid • Acell: bottom area of shear cell
The calculation of the bulk density is done automatically with the evaluation software provided together with the shear tester.

[5] = without ultrasound (US), listed as Probe 2

## C[C@@H]1OC(=O)NN=C1c1ccc(-c2ccc(F)cc2)c(C(F)(F)F)c1 [polymorph C, (6S)-5-[4′-Fluoro-2-(trifluoromethyl)biphenyl-4-yl]-6-methyl-3,6-dihydro-2H-1,3,4-oxadiazin-2-one]
[1]
  difference between Q3[50] of untreated sample and sample treated 300 s with ultrasound: significantly smaller
[1]; 300 s US, listed as Probe2
  D(10): 14.5 μm
  D(50): 57.3 μm
  D(90): 170 μm
[1]; particle size D 0.01 μm, 300 s US
  Cumulative volume distribution Q: 0%
[1]; particle size D 0.01 μm, without US
  Cumulative volume distribution Q: 0%
[1]; particle size D 0.0114 μm, 300 s US
  Cumulative volume distribution Q: 0%
[1]; particle size D 0.0114 μm, without US
  Cumulative volume distribution Q: 0%
[1]; particle size D 0.0129 μm, 300 s US
  Cumulative volume distribution Q: 0%
[1]; particle size D 0.0129 μm, without US
  Cumulative volume distribution Q: 0%
[1]; particle size D 0.0147 μm, 300 s US
  Cumulative volume distribution Q: 0%
[1]; particle size D 0.0147 μm, without US
  Cumulative volume distribution Q: 0%
[1]; particle size D 0.0167 μm, 300 s US
  Cumulative volume distribution Q: 0%
[1]; particle size D 0.0167 μm, without US
  Cumulative volume distribution Q: 0%
[1]; particle size D 0.0189 μm, 300 s US
  Cumulative volume distribution Q: 0%
[1]; particle size D 0.0189 μm, without US
  Cumulative volume distribution Q: 0%
[1]; particle size D 0.0215 μm, 300 s US
  Cumulative volume distribution Q: 0%
[1]; particle size D 0.0215 μm, without US
  Cumulative volume distribution Q: 0%
[1]; particle size D 0.0244 μm, 300 s US
  Cumulative volume distribution Q: 0%
[1]; particle size D 0.0244 μm, without US
  Cumulative volume distribution Q: 0%
[1]; particle size D 0.0278 μm, 300 s US
  Cumulative volume distribution Q: 0%
[1]; particle size D 0.0278 μm, without US
  Cumulative volume distribution Q: 0%
[1]; particle size D 0.0315 μm, 300 s US
  Cumulative volume distribution Q: 0%
[1]; particle size D 0.0315 μm, without US
  Cumulative volume distribution Q: 0%
[1]; particle size D 0.0358 μm, 300 s US
  Cumulative volume distribution Q: 0%
[1]; particle size D 0.0358 μm, without US
  Cumulative volume distribution Q: 0%
[1]; particle size D 0.0407 μm, 300 s US
  Cumulative volume distribution Q: 0%
[1]; particle size D 0.0407 μm, without US
  Cumulative volume distribution Q: 0%
[1]; particle size D 756 μm, 300 s US
  Cumulative volume distribution Q: 100%
[1]; particle size D 756 μm, without US, listed as Probe 2
  Cumulative volume distribution Q: 99.65%
[1]; particle size D 859 μm, 300 s US
  Cumulative volume distribution Q: 100%
[1]; particle size D 859 μm, without US, listed as Probe 2
  Cumulative volume distribution Q: 99.9%
[1]; particle size D 976 μm, 300 s US
  Cumulative volume distribution Q: 100%
[1]; particle size D 976 μm, without US, listed as Probe 2
  Cumulative volume distribution Q: 100%
[1]; particle size D 1110 μm, 300 s US
  Cumulative volume distribution Q: 100%
[1]; particle size D 1110 μm, without US
  Cumulative volume distribution Q: 100%
[1]; particle size D 1260 μm, 300 s US
  Cumulative volume distribution Q: 100%
[1]; particle size D 1260 μm, without US
  Cumulative volume distribution Q: 100%
[1]; particle size D 1430 μm, 300 s US
  Cumulative volume distribution Q: 100%
[1]; particle size D 1430 μm, without US
  Cumulative volume distribution Q: 100%
[1]; particle size D 1630 μm, 300 s US
  Cumulative volume distribution Q: 100%
[1]; particle size D 1630 μm, without US
  Cumulative volume distribution Q: 100%
[1]; particle size D 1850 μm, 300 s US
  Cumulative volume distribution Q: 100%
[1]; particle size D 1850 μm, without US
  Cumulative volume distribution Q: 100%
[1]; particle size D 2100 μm, 300 s US
  Cumulative volume distribution Q: 100%
[1]; particle size D 2100 μm, without US
  Cumulative volume distribution Q: 100%
[1]; particle size D 2390 μm, 300 s US
  Cumulative volume distribution Q: 100%
[1]; particle size D 2390 μm, without US
  Cumulative volume distribution Q: 100%
[1]; particle size D 2710 μm, 300 s US
  Cumulative volume distribution Q: 100%
[1]; particle size D 2710 μm, without US
  Cumulative volume distribution Q: 100%
[1]; particle size D 3080 μm, 300 s US
  Cumulative volume distribution Q: 100%
[1]; particle size D 3080 μm, without US
  Cumulative volume distribution Q: 100%
[1]; particle size D 3500 μm, 300 s US
  Cumulative volume distribution Q: 100%
[1]; particle size D 3500 μm, without US
  Cumulative volume distribution Q: 100%
[1]; ultrasound treatment, compared to polymorph A
  robustness of crystals: more robust
[1]; [5]
  D(10): 69.1 μm
  D(50): 179 μm
  D(90): 380 μm
[2]
  hygroscopicity classification: non-hydroscopic
[3]
  thermodynamic stability: thermodynamically stable form
[4]
  bulk density compared with sample 1 (FIG. 22): significantly higher
[4]; normal stress 1.5 kPa
  bulk density: about 550 kg/m^3
